Values joined by “and” are separate entries in the source; they are usually repeats but may differ in a detail not shown here. Equal entries are not always repeated.
Assays:
human fecal microbiota = experiment: In vitro batch fermentation with human fecal microbiota; format: in vitro ADME; parameters: final concentration after 8 h of fermentation: reference not given here; conditions: for bacterial metabolites detected: feces from three donors, 8 h
Experimental: Using a batch fermentation model of the human colon, 2-arylbenzofurans were incubated after the addition of human fecal bacteria from three donors. Samples were collected at 0, 2, 4, and 8 h and the effect of microbiota on tested 2-arylbenzofurans was determined by UHPLC/MS HRAM.
Medium was prepared from 225 mL of distilled water, 112.5 mL of macromineral solution, 56.25 μL of micromineral solution, 562.5 μL of 0.1% resazurin solution, and 1.125 g of tryptone. The macromineral solution was prepared from 7.14 g of Na2HPO4, 6.2 g of KH2PO4, 0.6 g of MgSO4, and up to 1 L of distilled water. The micromineral solution was made of 2.64 g of CaCl2, 2 g of MnCl2, CoCl2, 1.6 g of FeCl3, and up to 20 mL of distilled water. CO3 buffer was created by mixing 1 g of NH4HCO3, 8.75 g of NaHCO3, and distilled water up to 250 mL.
Phosphate buffer for fecal slurries was created by dissolving 1.77 g of KH2PO4 in 195 mL of distilled water and 3.62 g of Na2HPO4 in 305 mL of distilled water (both 1/15M). The acidity of the mixed phosphate buffer was adjusted to a neutral pH by hydrochloric acid. The reducing solution was created by mixing 125 mg of cysteine hydrochloride, 125 mg of Na2S, 0.8 mL of 1M NaOH, and distilled water up to 20 mL.
Mulberrofuran Y (1), moracin C (2), and mulberrofuran G (3) were dissolved in DMSO to a final concentration of 10 mg/mL. After boiling the fermentation medium and sodium phosphate buffer, both were cooled to 37 °C. To remove oxygen, the samples were purged with nitrogen gas (approximately 30 min). The pH of the medium was equilibrated to neutral pH using HCl. For each fermentation bottle, 17.18 mL of fermentation medium and 0.8 mL of reducing solution were transferred to create fermentation vials. Fecal slurry was prepared immediately after sampling from each donor by homogenizing the collected feces in a stomacher bag with phosphate buffer to produce a 25% fecal slurry. After filtration through the mesh, 2 mL of the filtered fecal slurry were added to each fermentation bottle. Finally, 20 μL of the tested compound or DMSO as a negative control were added. The bottles were incubated at 37 °C for 8 h with stirring at 100 strokes per minute. Aliquots of fecal suspensions were collected at 0, 2, 4, and 8 h, and stored at −80 °C until further analysis.
First, 400 μL sample of supernatant fluid were defrosted and centrifuged (5 min/15,000 RPM) and the pellet was erased. Supernatant was combined with 20 μL of ^13C6 trans-resveratrol in methanol (2 μg/mL), which was used as an internal standard. Samples were extracted 3 times with 2.5 mL of ethyl acetate and 2 mL of ultra-pure water. After liquid-liquid extraction, ethyl acetate was evaporated with nitrogen gas and redissolved in 1 mL of methanol (VWR Chemicals, Stribrna Skalice, Czech Republic) in combination with formic acid (Fisher Scientific, Merelbeke, Belgium) (1%).
(§1) The analysis was performed on an LC/MS system consisting of an Ultimate 3000 UPLC chromatograph Thermo Fisher Scientific (Waltham, MA, USA) coupled to an Impact II ultra-high resolution high mass accuracy mass spectrometer (HRAM) Q-TOF (Bruker Daltonics, Bremen, Germany) equipped with an electrospray ionization (ESI) source.
(§2) The separation was carried out on a Phenomenex F5 Kinetex column (1.7 μm 100 Å 100 × 2.1 mm) (Phenomenex, Torrance, CA, USA) by using a mobile phase consisting of 0.1% formic acid (solvent A) and methanol (solvent B). The binary gradient was run at a flow rate of 0.2 mL/min as follows: 0–3 min isocratic at 20% B, 3–6 min from 20% to 50% B, 6–15 min isocratic at 100% B, and 15–20 min isocratic at 20% B. The column oven was adjusted to 35 °C, and the injection volume was 5 μL.
For metabolite screening, the ESI source was set in both positive and negative mode. Semiquantitative analysis was performed in negative mode with the parameters listed in the Appendix A. Each compound was confirmed by MS/MS fragmentation with a collision energy voltage (20, 30, and 50 eV). […]

Caco-2 cell line = experiment: Permeability and metabolism assay on Caco-2 cell line in Transwell plates; format: in vitro ADME, human; conditions: for Apical side (unchanged parent compound) / Basolateral side (unchanged parent compound) / Cells (unchanged parent compound) / Transformed (converted or metabolized): of the initial 20 μM as 100%, after 4 h; for Transformed (converted or metabolized): remainder
Experimental: as §1, §2
For metabolite screening, the ESI source was set in both positive and negative mode. Semiquantitative analysis was performed in negative mode with the parameters listed in the Appendix A. Each compound was confirmed by MS/MS fragmentation with a collision energy voltage (20, 30, and 50 eV). Data acquisition was performed using HyStar 3.2 SR4, Otof series 4.0 (Bruker Daltonics, Bremen, Germany) and Chromeleon Xpress (Thermo Fisher Scientific, Waltham, MA, USA) software and the data obtained were analyzed by using DataAnalysis 4.3. (Bruker Daltonics, Bremen, Germany). Commercially available standards of mulberrofuran Y (1), moracin C (2), and mulberrofuran G (3), each at 9 concentration levels ranging from 0.5–500 ng/mL, were used for calibration. A list of the 2-arylbenzofurans monitored in the samples is given in the Appendix B.
The Caco-2 cell lines were purchased from the American Type Tissue Collection (Rockville, MD, USA). Caco-2 cells in Transwells at passage 25 were used. More information on cell culture and passaging is described in [17].
Cells were cultured in DMEM-F12 (Dulbecco’s modified Eagles medium—Nutrient Mixture F-12) supplemented with 10% FBS (fetal bovine serum), 1% nonessential amino acids, 1% penicillin, and streptomycin, all obtained from Sigma-Aldrich (Prague, Czech Republic) in humidified air containing 5% CO2. Cells were seeded at a density of 2.6 × 10^5 cells/cm in 24-wells. The inserts were pre-filled with 50 µL of medium before seeding the cells. After seeding, the basolateral side of the chamber was filled with 1 mL of DMEM, and cells were grown in a humidified atmosphere of 5% CO2 at 37 °C. Non-adherent cells were removed by removing the medium after 6 h of incubation and replaced with 0.5 mL of fresh DMEM. The culture medium was replaced seven times a week for 21 to 25 days prior to the transport experiment.
The filter inserts containing a monolayer of the Caco-2 cell line were washed three times with HBBS (Hanks’ Balanced Salt solution) heated to 37 °C and pH 7.4. The integrity of the cell monolayer was confirmed by measuring the transepithelial electrical resistance (TEER), which had to be at least 600 Ω. After adding 25 µM lucifer yellow, the plates were incubated at 37 °C in 5% CO2 atmosphere for 1 h with shaking (150 rpm). Using a Tecan Infinite M200 reader (Excitation/Emission wavelength 480 nm/530 nm), the plates were measured. Only plates with an integrity greater than 95% were used in the following experiment.
Initially, 500 µL of 20 µM test substance solutions were added to the apical side of each insert and 1000 µL of HBSS were added to the basolateral side. At the same time, 50 µL were taken immediately from the apical side at the time point of 0 h. For future analysis, basolateral sampling times of 0.5, 1, 1.5, 2, 3, and 4 h were chosen while placing the plates in the incubator and using an orbital shaker (150 rpm). In this experiment, 500 µL of sample were always taken from the basolateral side and replaced with an equal amount of pure HBSS. After 4 h, the apical side was simultaneously removed, and the inserts were washed three times with HBSS. […]

[1] = parameters: method as in PMID 15636183; conditions: cited from earlier work
COX = test system: COX; parameters: method as in PMID 3097265; conditions: cited from earlier work
[2] = test system: THP-1 human monocytic leukemic cell line; parameters: method as in PMID 24901948; conditions: read-out: cytotoxic activity; cited from earlier work

Row | Compound | bacterial metabolites detected (human fecal microbiota) | Apical side (unchanged parent compound) (Caco-2 cell line) | Basolateral side (unchanged parent compound) (Caco-2 cell line) | Cells (unchanged parent compound) (Caco-2 cell line) | Transformed (converted or metabolized) (Caco-2 cell line) | final concentration after 8 h of fermentation (human fecal microbiota; donor D1) | final concentration after 8 h of fermentation (human fecal microbiota; donor D2) | IC50 [2] | other results
1 | CC1=CC2c3c(O)cc(-c4cc5ccc(O)cc5o4)cc3OC3(c4ccc(O)cc4O)Oc4cc(O)ccc4C(C1)C23 (centres unmarked) [Mulberrofuran G (3), mulberrofuran G] | No metabolites were detected | 2.7 ± 0.5% | 0 ± 0% | 14.0 ± 0.6% | 83.3 ± 1.1% | – | – | – | concentration of parent compound after fermentation (human fecal microbiota; after 8 h, initial 10 μg/mL, in 2 donors): 5000 ng/mL; concentration of parent compound, minimum (human fecal microbiota; at 2 h, initial 10 μg/mL, the one donor in which compound was stable): 9000 ng/mL; concentration of parent compound after fermentation (human fecal microbiota; at 8 h, initial 10 μg/mL, the one donor in which compound was stable): 10000 ng/mL; Apical side (unchanged parent compound) (Caco-2 cell line; listed as mulberrofuran G (3)): 2.7 ± 0.5%; Basolateral side (unchanged parent compound) (Caco-2 cell line; listed as mulberrofuran G (3)): nothing; Cells (unchanged parent compound) (Caco-2 cell line; listed as mulberrofuran G (3)): 14% and 14.0 ± 0.6%; Transformed (converted or metabolized) (Caco-2 cell line; listed as mulberrofuran G (3)): 83.3 ± 1.1%; antimicrobial effects [1]: potent antimicrobial effects; COX inhibitor (COX): inhibitor
2 | CC(C)=CCc1c(O)cc(-c2cc3ccc(O)cc3o2)cc1O [Moracin C (2), moracin C] | No metabolites were detected | 0.7 ± 0.2% | 0 ± 0% | 8.2 ± 0.5% | 91.1 ± 0.7% | 66 ± 3% | 87 ± 10% | 3.2 ± 0.13 µM | Apical side (unchanged parent compound) (Caco-2 cell line; listed as moracin C (2)): 0.7 ± 0.2%; Cells (unchanged parent compound) (Caco-2 cell line; listed as moracin C (2)): 8.2% and 8.2 ± 0.5%; Transformed (converted or metabolized) (Caco-2 cell line; listed as moracin C (2)): 91.1 ± 0.7%
3 | COc1c(O)cc2oc(-c3cc(O)cc(O)c3)cc2c1C/C=C(\C)CCC=C(C)C [Mulberrofuran Y (1), mulberrofuran Y] | No metabolites were detected | 8.9 ± 5.9% | 0 ± 0% | 85.3 ± 19.9% | 5.8 ± 25.8% | 25 ± 0% | 69 ± 8% | 4.8 ± 0.19 µM | became detectable on the basolateral side after (Caco-2 cell line; incubation time, basolateral sampling 0.5-4 h): 3 h; Apical side (unchanged parent compound) (Caco-2 cell line; listed as mulberrofuran Y (1)): 8.9 ± 5.9%; Basolateral side (unchanged parent compound) (Caco-2 cell line; listed as mulberrofuran Y (1)): no amount; Cells (unchanged parent compound) (Caco-2 cell line; listed as mulberrofuran Y (1)): 85.3% and 85.3 ± 19.9%; Transformed (converted or metabolized) (Caco-2 cell line; listed as mulberrofuran Y (1)): 5.8 ± 25.8%
